How the values were obtained:
Assay type in all cases: physicochemical
[1] = Particle size by laser diffractometry (LD, Coulter LS230)
[2] = Average particle diameter determined by light microscopy; conditions: Example 14: propylene glycol, 0.2% Tween 80; 700 bar, room temperature, 30 minutes, degassed medium, nitrogen
Description: 10% tragacanth was dispersed in Miglyol 812 with addition of 1% Span 80 and microparticles prepared as described in example 1. The average diameter determined by light microscopy was 7.54 μm after 10 cycles at 1500 bar.
Preparation of a Clinical Batch Under Oxygen-Poor Conditions and protective gassing: azodicarbonamide (1) was dispersed with addition of Tween 80 (0.2%) analogously to example 12 in 2 kg propylene glycol and homogenized (homogenization pressure: 700 bar, room temperature) in a cyclical process for 30 minutes with a Micron LAB 60 (APV Deutschland GmbH, Lubeck, Germany). Propylene glycol was degassed beforehand by heating. The product container was kept under nitrogen. The average diameter determined by light microscopy was 5.45 μm after 30 minutes' homogenization time.

[3] = Particle size by photon correlation spectroscopy (PCS, Zetasizer 4); conditions: Example 2: anhydrous glycerol, 20 cycles at 1500 bar
Description: The characterization of the superfine microparticle dispersions and nanoparticles was by means of laser diffractometry (LD) (Coulter LS230, Coulter Electronics, Miami, USA) and photon correlation spectroscopy (PCS) (Zetasizer 4, Malvern Instruments, Malvern, United Kingdom). Characterization parameters were the 50% (D50%), 90% (D90%) and 95% (D95%) LD diameter measured by LD. The PCS (measurement range approx. 3 nm-3 μm) gives the PCS diameter and, as a measure of the width of the distribution, the polydispersity index (PI) in the range from 0.000 (+ideal monodispersion) to 0.500 (very broad distribution), above 0.5 no further conclusions can be drawn with regard to the width of distribution.

[4] = Example 12: 10% in PEG 400, 0.5% Tween 80, 4 cycles at 1500 bar
[5] = Example 1: 1% drug, 0.5% Tween 80, anhydrous glycerol, 6 cycles at 1500 bar, room temperature
[6] = Example 3: anhydrous glycerol, 10 cycles at 1500 bar
[7] = Example 3: purely aqueous dispersion (glycerol replaced by water), 10 cycles at 1500 bar
[8] = Example 6: 1.0% water, 4 cycles at 1500 bar
[9] = Example 6: anhydrous (0% water), 4 cycles at 1500 bar
[10] = Example 7: 10% water, 4 cycles at 1500 bar
[11] = Example 7: 30% water, 4 cycles at 1500 bar
[12] = Example 8: 50% water, 4 cycles at 1500 bar
[13] = Example 13: 10 cycles at 1500 bar

In the case of `NC(=O)N=NC(N)=O` [azodicarbonamide], the 50% diameter [1, 4] is reported as 3.0 μm, the D90% [1, 4] is reported as 6.2 μm and the D95% [1, 4] is reported as 7.2 μm. The “average diameter determined by light microscopy” value [2] was 5.45 μm.

For `CC1CN(c2nc(N(CCO)CC(C)(C)O)c3nc(-c4ccccc4)c(N4CC(C)OC(C)C4)nc3n2)CC(C)O1` (stereo not drawn) [drug from example 1, 1-[[2,7-bis(2,6-dimethyl-4-morpholinyl)-6-phenyl-4-pteridinyl]-(2-hydroxyethyl)-amino]-2-methyl-[cis[cis]]-propan-2-ol], the “D50% LD diameter” value [1, 5] was 1.7 μm, the “D90% LD diameter” value [1, 5] was 4.5 μm and the “D95% LD diameter” value [1, 5] was 5.4 μm. For the same compound, the D50% diameter [1, 6] was 1.3 μm, the D90% diameter [1, 6] was 3.2 μm and the D50% diameter [1, 7] was 0.9 μm. For the same compound, the D90% diameter [1, 7] was 2.3 μm, the D50% diameter [1, 8] was 2.1 μm and the D90% diameter [1, 8] was 5.4 μm. For the same compound, the D50% diameter [1, 9] was 1.9 μm, the D90% diameter [1, 9] was 4.9 μm and the D50% diameter [1, 10] was 1.7 μm. For the same compound, the D90% diameter [1, 10] was 4.1 μm, the D50% diameter [1, 11] was 1.7 μm and the D90% diameter [1, 11] was 4.2 μm. The D50% diameter [1, 12] was 1.5 μm, the D90% diameter [1, 12] was 3.7 μm and the 95% diameter ([1]; Example 13: 0% water (pure glycerol), 10 cycles at 1500 bar) was 3.9 μm. For the same compound, the “D50% across dispersion media of 0% to 100% water” value [1, 13] was “little change”, the “difference in 95% diameter, pure glycerol vs pure water” value [1, 13] was “approx. 1.1 μm” and the “difference in D95%, 2 cycles vs 10 cycles” value ([1]; Example 13: pure glycerol (0% water), 1500 bar) was “approx. 3.1 μm”. The D95% ([1]; Example 13: pure glycerol (0% water), after 2 cycles at 1500 bar) was 7.0 μm, the 95% diameter ([1]; Example 13: pure water, 10 cycles at 1500 bar) was 2.8 μm and the “average PCS diameter” value [3] was 950 nm. For the same compound, the “polydispersity index (PI)” value [3] was 0.513.
